Results reported in paper PMC6266789 (Viruses, 2018).

System: NA of pH1N1 influenza virus recovered from lungs of IS mice
Assay type: biochemical, influenza A(H1N1)pdm09

CCOC(=O)C1=C[C@@H](OC(CC)CC)[C@H](NC(C)=O)[C@@H](N)C1 [Oseltamivir, oseltamivir]
oseltamivir resistance phenotype associated with H275Y by NAI assay: not detected
